Assay results from patent publication US12595266B2, “Pesticidally active heterocyclic derivatives with sulfur containing substituents” (SYNGENTA CROP PROTECTION AG, priority 2020, dated 2026).

Legend:
Type in all cases: in vivo
[1] = tested on: Chilo suppressalis (Striped Rice Stemborer); experiment: Activity against Chilo suppressalis (striped rice stemborer); conditions: 144 h, application rate of 200 ppm, artificial diet, L2 larvae, 6 days after infestation, read-out: control (at least one of mortality, anti-feedant effect, growth inhibition)
Procedure: Example B2: Activity Against Chilo suppressalis (Striped Rice Stemborer)
24-well microtiter plates with artificial diet were treated with aqueous test solutions prepared from 10′000 ppm DMSO stock solutions by pipetting. After drying, the plates were infested with L2 larvae (6-8 per well). The samples were assessed for mortality, anti-feeding effect, and growth inhibition in comparison to untreated samples 6 days after infestation. Control of Chilo suppressalis by a test sample is given when at least one of the categories mortality, anti-feedant effect, and growth inhibition is higher than the untreated sample.

[2] = tested on: Diabrotica balteata (Corn Root Worm); experiment: Activity against Diabrotica balteata (corn root worm); conditions: 96 h, application rate of 200 ppm, maize sprouts sprayed, L2 larvae, 4 days after infestation, read-out: effect in at least one of the two categories (mortality or growth inhibition)
Procedure: Example B3: Activity Against Diabrotica balteata (Corn Root Worm)
Maize sprouts placed onto an agar layer in 24-well microtiter plates were treated with aqueous test solutions prepared from 10′000 ppm DMSO stock solutions by spraying. After drying, the plates were infested with L2 larvae (6 to 10 per well). The samples were assessed for mortality and growth inhibition in comparison to untreated samples 4 days after infestation.

[3] = tested on: Euschistus heros (Neotropical Brown Stink Bug); experiment: Activity against Euschistus heros (neotropical brown stink bug); conditions: 120 h, application rate of 200 ppm, soybean leaves sprayed, N2 nymphs, 5 days after infestation, read-out: effect in at least one of the two categories (mortality or growth inhibition)
Procedure: Example B4: Activity Against Euschistus heros (Neotropical Brown Stink Bug)
Soybean leaves on agar in 24-well microtiter plates were sprayed with aqueous test solutions prepared from 10′000 ppm DMSO stock solutions. After drying the leaves were infested with N2 nymphs. The samples were assessed for mortality and growth inhibition in comparison to untreated samples 5 days after infestation.

[4] = tested on: Frankliniella occidentalis (Western Flower Thrips); experiment: Activity against Frankliniella occidentalis (western flower thrips), feeding/contact activity; conditions: foliar, 168 h, application rate of 200 ppm, sunflower leaf discs sprayed, population of mixed ages, 7 days after infestation
Procedure: Example B5: Activity Against Frankliniella occidentalis (Western Flower Thrips) Feeding/Contact Activity
Sunflower leaf discs were placed on agar in 24-well microtiter plates and sprayed with aqueous test solutions prepared from […] stock solutions. After drying the leaf discs were infested with a Frankliniella population of mixed ages. The samples were assessed for mortality 7 days after infestation.

[5] = tested on: Myzus persicae (Green Peach Aphid); experiment: Activity against Myzus persicae (green peach aphid), feeding/contact activity; conditions: foliar, 144 h, application rate of 200 ppm, sunflower leaf discs sprayed, aphid population of mixed ages, 6 days after infestation
Procedure: Example B6: Activity Against Myzus persicae (Green Peach Aphid) Feeding/Contact Activity
Sunflower leaf discs were placed onto agar in a 24-well microtiter plate and sprayed with aqueous test solutions prepared from 10′000 ppm DMSO stock solutions. After drying, the leaf discs were infested with an aphid population of mixed ages. The samples were assessed for mortality 6 days after infestation.

[6] = tested on: Plutella xylostella (Diamond Back Moth); experiment: Activity against Plutella xylostella (diamond back moth); conditions: 192 h, application rate of 200 ppm, artificial diet, Plutella eggs, 8 days after infestation, read-out: effect in at least one of the two categories (mortality or growth inhibition)
Procedure: Example B7: Activity Against Plutella xylostella (Diamond Back Moth)
24-well microtiter plates with artificial diet were treated with aqueous test solutions prepared from 10′000 ppm DMSO stock solutions by pipetting. After drying, Plutella eggs were pipetted through a plastic stencil onto a gel blotting paper and the plate was closed with it. The samples were assessed for mortality and growth inhibition in comparison to untreated samples 8 days after infestation.

[7] = tested on: Spodoptera littoralis (Egyptian Cotton Leaf Worm); experiment: Activity against Spodoptera littoralis (Egyptian cotton leaf worm); conditions: foliar, 72 h, application rate of 200 ppm, cotton leaf discs sprayed, L1 larvae, 3 days after infestation, read-out: control (at least one of mortality, anti-feedant effect, growth inhibition)
Procedure: Example B8: Activity Against Spodoptera littoralis (Egyptian Cotton Leaf Worm)
Cotton leaf discs were placed onto agar in 24-well microtiter plates and sprayed with aqueous test solutions prepared from 10′000 ppm DMSO stock solutions. After drying the leaf discs were infested with five L1 larvae. The samples were assessed for mortality, anti-feeding effect, and growth inhibition in comparison to untreated samples 3 days after infestation. Control of Spodoptera littoralis by a test sample is given when at least one of the categories mortality, anti-feedant effect, and growth inhibition is higher than the untreated sample.

[8] = tested on: Carpocapsa (Cydia) Pomonella (Codling Moth); experiment: Activity against Carpocapsa (Cydia) pomonella (codling moth), larvicide, feeding/contact; conditions: 336 h, application rate of 12.5 ppm, paraffin-coated diet cubes sprayed, L1 larvae, 14 days after infestation, 26-27° C.
Procedure: Example B10: Activity Against Carpocapsa (Cydia) Pomonella (Codling Moth) Larvicide, Feeding/Contact
Diet cubes coated with paraffin were sprayed with diluted test solutions in an application chamber. After drying off the treated cubes (10 replicates) were infested with 1 L1 larvae. Samples were incubated at 26-27° C. and checked 14 days after infestation for mortality and growth inhibition.

[9] = tested on: Bemisia tabaci (Cotton White Fly); experiment: Activity against Bemisia tabaci (cotton white fly), feeding/contact activity; conditions: foliar, 144 h, application rate of 200 ppm, cotton leaf discs sprayed, adult white flies, 6 days after incubation
Procedure: Example B1: Activity Against Bemisia tabaci (Cotton White Fly) Feeding/Contact Activity
Cotton leaf discs were placed on agar in 24-well microtiter plates and sprayed with aqueous test solutions prepared from 10′000 ppm DMSO stock solutions. After drying the leaf discs were infested with adult white flies. The samples were checked for mortality 6 days after incubation.

CCS(=O)(=O)c1c(N2Cc3cc4c(cc3C2=O)OC(F)(F)O4)nc(-c2ccc(C3(C#N)CC3)cc2)n1C [Compound P2, 1-[4-[4-(2,2-difluoro-7-oxo-5H-[1,3]dioxolo[4,5-f]isoindol-6-yl)-5-ethylsulfonyl-1-methyl-imidazol-2-yl]phenyl]cyclopropanecarbonitrile]
≥ 80%: percent control (mortality, anti-feedant effect or growth inhibition) at 200 ppm [1] | percent effect (mortality or growth inhibition) at 200 ppm [2] | percent effect (mortality or growth inhibition) at 200 ppm [3] | mortality at 200 ppm [4] | mortality at 200 ppm [5] | percent effect (mortality or growth inhibition) at 200 ppm [6] | percent control (mortality, anti-feedant effect or growth inhibition) at 200 ppm [7] | mortality at 12.5 ppm [8]

CCS(=O)(=O)c1cc(OC(C)(C)C#N)cnc1N1Cc2cc3c(cc2C1=O)OC(F)(F)O3 [Compound P25, 2-[[6-(2,2-difluoro-7-oxo-5H-[1,3]dioxolo[4,5-f]isoindol-6-yl)-5-ethylsulfonyl-3-pyridyl]oxy]-2-methyl-propanenitrile]
≥ 80%: mortality at 200 ppm [9] | percent control (mortality, anti-feedant effect or growth inhibition) at 200 ppm [1] | percent effect (mortality or growth inhibition) at 200 ppm [2] | percent effect (mortality or growth inhibition) at 200 ppm [3] | mortality at 200 ppm [5] | percent effect (mortality or growth inhibition) at 200 ppm [6] | percent control (mortality, anti-feedant effect or growth inhibition) at 200 ppm [7] | mortality at 12.5 ppm [8]

CCS(=O)(=O)c1cc(C2(C#N)CC2)cnc1N1Cc2cc3c(cc2C1=O)OC(F)(F)O3 [Compound P1, 1-[6-(2,2-difluoro-7-oxo-5H-[1,3]dioxolo[4,5-f]isoindol-6-yl)-5-ethylsulfonyl-3-pyridyl]cyclopropanecarbonitrile]
≥ 80%: mortality at 200 ppm [9] | percent control (mortality, anti-feedant effect or growth inhibition) at 200 ppm [1] | percent effect (mortality or growth inhibition) at 200 ppm [2] | percent effect (mortality or growth inhibition) at 200 ppm [3] | mortality at 200 ppm [5] | percent effect (mortality or growth inhibition) at 200 ppm [6] | percent control (mortality, anti-feedant effect or growth inhibition) at 200 ppm [7] | mortality at 12.5 ppm [8]
